Patent publication US20250136614A1, “2,7-SUBSTITUTED PYRROLO[2,1-F][1,2,4]TRIAZINE COMPOUND HAVING PROTEIN KINASE INHIBITORY ACTIVITY” (Magicbullettherapeutics Co., Ltd., priority 2021, published 2025)

Assays:
Assay type in all cases: cell-based
[1] = test system: colo205; assay: Cancer cell growth inhibition (CellTiter-Glo, 72 hours); conditions: Homo sapiens, COLO 205, colo205 cells, read-out: GI50s (μM) colo205
Description: (§1) Seeding 3000 cells per well in a 96-well plate. After cell stabilization, treat the cells with compounds diluted in 0.5% DMSO at a ⅓ serial dilution and culture for 72 hours. Following treatment with CellTiter-Glo, luminescence is produced only in the presence of ATP, as luciferase degrades luciferin. Luminescence values were measured using Envision (PerkinElmer). Based on the measured luminescence values, the concentration of compounds causing cell death was calculated to determine the GI50 value.
(§2) The activity values were categorized into three levels • A: IC50<1 μM • B: 1 μM≤IC50<10 μM, • C: IC50≥10 μM

[2] = test system: HCT116; assay: as above; conditions: Homo sapiens, HCT-116, HCT116 cells, read-out: GI50s (μM) HCT116
Description: as §1, §2

[3] = test system: MDA-MB-231; assay: as above; conditions: Homo sapiens, MDA-MB-231 cells, read-out: GI50s (μM) MDA-MB-231
Description: as §1, §2

[4] = test system: H358; assay: as above; conditions: Homo sapiens, NCI-H358, H358 cells, read-out: GI50s (μM) H358
Description: as §1, §2

[5] = test system: H23; assay: as above; conditions: Homo sapiens, NCI-H23, H23 cells, read-out: GI50s (μM) H23
Description: as §1, §2

[6] = test system: H1975; assay: as above; conditions: Homo sapiens, NCI-H1975, H1975 cells, read-out: GI50s (μM) H1975
Description: as §1, §2

[7] = molecular target: T1, Ba/F3 FLT3 (ITD/D835YF691L) (Homo sapiens, UniProt P36888, F691L/D835Y, cells depend on it, form not given); assay: Ba/F3 cell growth inhibition (CellTiter-Glo, 72 hours); conditions: read-out: Ba/F3 GI50s (μM) FLT3 (ITD/D835YF691L)
T1 sequence (P36888 1-993 F691L/D835Y): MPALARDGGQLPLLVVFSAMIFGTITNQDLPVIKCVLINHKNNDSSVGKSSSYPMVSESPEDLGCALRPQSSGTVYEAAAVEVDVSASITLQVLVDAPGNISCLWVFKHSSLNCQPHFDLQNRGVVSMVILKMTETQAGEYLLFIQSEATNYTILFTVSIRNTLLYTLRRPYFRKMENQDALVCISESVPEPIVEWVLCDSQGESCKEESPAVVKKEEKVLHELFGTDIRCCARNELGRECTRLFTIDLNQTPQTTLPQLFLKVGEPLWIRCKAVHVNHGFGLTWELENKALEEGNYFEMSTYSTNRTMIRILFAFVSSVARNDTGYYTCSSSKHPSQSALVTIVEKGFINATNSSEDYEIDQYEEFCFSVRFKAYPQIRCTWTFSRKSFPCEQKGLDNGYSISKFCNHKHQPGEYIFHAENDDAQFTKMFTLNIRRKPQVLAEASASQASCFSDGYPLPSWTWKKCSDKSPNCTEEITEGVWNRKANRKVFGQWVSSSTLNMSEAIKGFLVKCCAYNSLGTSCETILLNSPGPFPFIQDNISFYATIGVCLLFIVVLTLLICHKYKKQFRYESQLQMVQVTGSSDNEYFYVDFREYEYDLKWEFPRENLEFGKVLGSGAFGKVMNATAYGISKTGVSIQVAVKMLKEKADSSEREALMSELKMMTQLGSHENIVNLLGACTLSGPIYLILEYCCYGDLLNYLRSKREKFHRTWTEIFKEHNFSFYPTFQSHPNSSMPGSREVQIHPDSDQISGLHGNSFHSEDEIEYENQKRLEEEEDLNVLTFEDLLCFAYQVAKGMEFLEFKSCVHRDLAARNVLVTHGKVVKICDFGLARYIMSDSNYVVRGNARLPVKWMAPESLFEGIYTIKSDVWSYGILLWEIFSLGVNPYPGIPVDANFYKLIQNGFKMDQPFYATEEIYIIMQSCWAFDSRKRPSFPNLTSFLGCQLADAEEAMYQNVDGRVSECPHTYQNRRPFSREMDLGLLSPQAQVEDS

c1cc2ccc1Nc1ncc3ccc(n3n1)-c1ccc(cc1)OCCNCCCO2 [Example 30, (Z)-5,12-dioxa-3,9-diaza-2(7,2)-pyrrolo[2,1-f][1,2,4]triazina-1,4(1,4)-dibenzenacyclododecaphane]
IC50 [1]: 1 to 10 µM | IC50 [2]: 1 to 10 µM | IC50 [3]: 1 to 10 µM | IC50 [4]: 1 to 10 µM | IC50 [5]: 1 to 10 µM | IC50 [6]: 1 to 10 µM | GI50 [7]: < 1 µM
